Experiments:
[1] = tested on: p21 transcripts in SJSA-1 cells; test: p21 assay (QRT-PCR of p21 transcripts in SJSA-1 cells); assay type: cell-based, human; settings: Homo sapiens, SJSA-1, 7 h, cell assay (SJSA-1 cell); p21 induction, 7 hours incubation
Description: Inhibition of the interaction between hMDM2 and p53 results in the activation of the p53 pathway via the stabilization and accumulation of p53. P53 activates the transcription of many genes, one of which is p21<WAFT/CIP1>. To evaluate the potency of hMDM2 inhibitors, quantitative reverse transcription polymerase chain reaction (QRT PCR) was used to measure the level of p21 transcripts of compound related cells relative to that of control cells treated with dimethyl sulfoxide (DMSO).
In the first day, SJSA-1 cells were inoculated into 100 μL growth medium (RPMI1640; 10 mM HEPES; 1 mM sodium pyruvate; 1× penicillin streptomycin glutamine (PSQ) and 10% FBS, all reagents were obtained from Invitrogen) at a density of 3×10^4 cells in 96-well cell culture plate. The cells were cultured overnight at 37° C. and 5% CO2 atmosphere.
In the second day, hMDM2 inhibitor was gradient diluted in DMSO(Sigma-Aldrich; St. Louis, Mo.). 5 μl of each compound dilution were added into 245 μl filtered assay medium (RPMI1640, 10% FBS, 10 mM HEPES, 1 mM sodium pyruvate and 1×PSQ). Or the assay was conducted with the presence of 10% human serum or 10% mouse serum, or without serum. Growth medium was removed from inoculated SJSA-1 cell culture plate and replaced by 100 μL assay medium for each well. Then 100 μL culture medium containing diluted inhibitor was added into each well to a final volume 200 μL. The final concentration of the compound was in the range of 0.049 μm-50 μm by dose titration with DMSO as control. The cells were incubated at 37° C. and 5% CO2 for 7 hours with the presence of inhibitor. When incubation was completed, growth medium was removed from cells and the plate was stored at −80° C.
In the third day, giagen BioRobot Universal workstation was used to purify total RNA from SJSA-1 cells treated with inhibitor and DMSO respectively. The purification procedure herein was according to RNeasy96BioRobot8000 test kit provided by Qiagen, Valencia, Calif.
To measure the level of existing p21 transcripts, QRT-PCR was introduced. The levels of p21, housekeeping genes and glyceraldehyde 3-phosphate dehydrogenase (GAPDH) were determined by the total RNA from each inhibitor- or DMSO-treated well by duplicated test. The QRT-PCR reaction was performed on the Applied Biosystems prism 7900ht instrument using the relative quantitative (ΔΔ Ct) method according to the following cycle conditions: 48° C. for 30 minutes, then 95° C. for 10 minutes, and then was 40 cycles consisting of 95° C. for 15 seconds and 60° C. for 1 minute. The data were analyzed by using Applied Biosystems SDS2.2 software, with GAPDH as inner control and DMSO treated samples as calibrators. SDS2.2 software calculated the relative quantification (RQ) or increased fold of p21 level relative to DMSO control for each treated sample. The maximum (100%) p21 induction fold was defined by the maximum value of the fitting curve of the reference compound. The p21 induction fold of each inhibitor dose tested was converted to a value representing the percentage of the maximum value. XLFit software (ID business solutions, Alameda, Calif.) was used to make dose-response curve to calculate the IC50 transit value of each inhibitor tested.

[2] = biological target: T1, GST-hMDM2 (aa1-188) (Homo sapiens, UniProt Q00987); test: Homogeneous time resolved fluorometry (HTRF assay), hMDM2/p53 interaction; assay type: binding; settings: HTRF analysis; GST-hMDM2 (aa1-188) / biotinylated-p53 (aa1-83)
T1 construct: The amino acid residues 1-188 of human MDM2 were expressed as GST-hMDM2 fusion protein; made in house; host or cells: E. coli
T1 sequence (Q00987 1-188): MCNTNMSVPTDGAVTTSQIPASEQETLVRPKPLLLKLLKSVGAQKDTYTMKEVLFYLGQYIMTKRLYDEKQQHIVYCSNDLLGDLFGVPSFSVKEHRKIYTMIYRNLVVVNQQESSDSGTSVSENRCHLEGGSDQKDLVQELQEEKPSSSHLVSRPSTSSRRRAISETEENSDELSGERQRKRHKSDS
Method: Residues 1-83 of human p53 were expressed as avitag <TM>-trxa-6×his fusion protein (biotinlabelled p53) in E. coli. Each protein was separated from cell homogenate by affinity chromatography.
Specifically, 10 μL GST-hMDM2 was incubated with 10 uL diluted compound in 10% DMSO for 20 minutes at room temperature. 20 μL biotinlabelled-p53 was added to the mixture of GST-hMDM2 and then incubated at room temperature for 60 min. A 10 μL detection buffer consisting of SA-XLent, anti-GST cavernous compound antibody and KF was added to the reaction solution consisting of GST-hMDM2, biotinlabelled-p53 and the compound and was placed at room temperature to achieve equilibrium and maintained for more than 4 h. The final concentration of DMSO in the reaction solution was 2%. Time resolved fluorescence were measured on a microplate multi label reader. The inhibition percentage was calculated relative to nutlin-3.

IC50 [1] [nM] | IC50 [2] [nM] | SMILES
< 1000 | < 10 | COc1cc(NC(=O)C[C@@]2(C)C[C@H](c3cccc(Cl)c3)[C@@H](c3ccc(Cl)cc3)N([C@H](C[S@](=O)(=NC(C)=O)C(C)C)C(C)C)C2=O)ccc1C(=O)O [Compound 042]
< 1000 | < 10 | COc1cc(NC(=O)C[C@@]2(C)C[C@H](c3cccc(Cl)c3)[C@@H](c3ccc(Cl)cc3)N([C@H](CS(=O)(=NC(N)=O)C(C)C)C(C)C)C2=O)ccc1C(=O)O (stereo partly drawn) [Compound 043]
< 1000 | < 10 | CC(C)[C@@H](CS(=O)(=NC(=O)N(C)C)C(C)C)N1C(=O)[C@@](C)(CC(=O)O)C[C@H](c2cccc(Cl)c2)[C@H]1c1ccc(Cl)cc1 (stereo partly drawn) [Compound 045]
< 1000 | < 10 | CC(C)[C@@H](CS(=O)(=NC(=O)N1CCOCC1)C(C)C)N1C(=O)[C@@](C)(CC(=O)O)C[C@H](c2cccc(Cl)c2)[C@H]1c1ccc(Cl)cc1 (stereo partly drawn) [Compound 046]
< 1000 | < 10 | CC(C)[C@@H](CS(=O)(=NC(=O)N1CCCC1)C(C)C)N1C(=O)[C@@](C)(CC(=O)O)C[C@H](c2cccc(Cl)c2)[C@H]1c1ccc(Cl)cc1 (stereo partly drawn) [Compound 047]
< 1000 | < 10 | CCOC(=O)N=S(=O)(C[C@H](C(C)C)N1C(=O)[C@@](C)(CC(=O)O)C[C@H](c2cccc(Cl)c2)[C@H]1c1ccc(Cl)cc1)C(C)C (stereo partly drawn) [Compound 048]
< 1000 | < 10 | COc1cc(NC(=O)C[C@@]2(C)C[C@H](c3cccc(Cl)c3)[C@@H](c3ccc(Cl)cc3)N([C@H](CS(=O)(=NC(=O)N(C)C)C(C)C)C(C)C)C2=O)ccc1C(=O)O (stereo partly drawn) [Compound 049]
< 1000 | < 10 | COc1cc(NC(=O)C[C@@]2(C)C[C@H](c3cccc(Cl)c3)[C@@H](c3ccc(Cl)cc3)N([C@H](CS(=O)(=NC(=O)N3CCOCC3)C(C)C)C(C)C)C2=O)ccc1C(=O)O (stereo partly drawn) [Compound 050]
< 1000 | < 10 | COc1cc(NC(=O)C[C@@]2(C)C[C@H](c3cccc(Cl)c3)[C@@H](c3ccc(Cl)cc3)N([C@H](CS(=O)(=NC(=O)N3CCCC3)C(C)C)C(C)C)C2=O)ccc1C(=O)O (stereo partly drawn) [Compound 051]
< 1000 | < 10 | CCOC(=O)N=S(=O)(C[C@H](C(C)C)N1C(=O)[C@@](C)(CC(=O)Nc2ccc(C(=O)O)c(OC)c2)C[C@H](c2cccc(Cl)c2)[C@H]1c1ccc(Cl)cc1)C(C)C (stereo partly drawn) [Compound 052]
< 1000 | < 10 | COc1cc(C(=O)O)ccc1NC(=O)C[C@@]1(C)C[C@H](c2cccc(Cl)c2)[C@@H](c2ccc(Cl)cc2)N([C@H](C[S@](=O)(=NC(C)=O)C(C)C)C(C)C)C1=O [Compound 053]
< 1000 | < 10 | COc1cc(C(=O)O)ccc1NC(=O)C[C@@]1(C)C[C@H](c2cccc(Cl)c2)[C@@H](c2ccc(Cl)cc2)N([C@H](C[S@](=O)(=NC(N)=O)C(C)C)C(C)C)C1=O [Compound 054]

— patent US11299460B2, “MDM2 inhibitor, preparation method therefor, pharmaceutical composition thereof and use thereof” (SHANGHAI LONGWOOD BIOPHARMACEUTICALS CO., LTD., priority 2018, dated 2022)
